As for `O=S(=O)(Cl)c1ccccc1Cn1cncn1`, the melting point was 180 to 195 °C.
As for `Cc1cccc(NC(=O)NCC(=O)N(c2ccccc2)C(C(=O)OC(C)(C)C)c2ccc(Cl)cc2)c1` (racemic), the melting point worked out at 167 °C.
With `CC1(C)OCC(CO)(CO)CO1` the figure was 124 to 126 °C.
Regarding `COCCN1CCc2sc(Nc3ncc(F)c(C)n3)nc2-c2c[nH]nc21`, the melting point lay in the range of 261 to 263 °C.
`COc1ccc(C2=NN(CCO)C(=O)[C@H]3CCCC[C@@H]23)cc1OC` (relative stereo) gave a melting point of 128 to 129 °C.
`O=C(O)CCN1CCN2c3ccccc3Sc3ccccc3C2C1` (configuration not stated) displayed a melting point of 218 to 220 °C.
The molecule `O=C(O)[C@H]1O[C@H](c2ccccc2Cl)c2cc(Cl)ccc2N(Cc2ccccc2)C1=O` (relative stereo) showed a melting point of 177 °C.
With `COC(=O)c1ccc2c(c(C)nn2C)c1C1=NC(C)(C(C)C)C(=O)N1` (configuration not stated), the melting point was in the range of 130 to 150 °C.
In the case of `Cc1cccc(NC(=O)NC2CN(C(=O)CN3CCN(C)CC3)c3ccccc3N(CC(=O)c3ccccc3C)C2=O)c1` (configuration not stated), the melting point lay within 245 to 247 °C.
With `CON=C1C(c2ccccc2)=C(c2ccc(S(C)(=O)=O)cc2)C1(C)C` the figure was 146 to 147 °C.
In the case of `COc1cc(NC(C)CCCN2C(=O)c3ccccc3C2=O)c2ncccc2c1N(C)C` (configuration not stated) it was 103 to 105 °C; in that of `CC(=O)c1ccc2c(c1)C(N1CCCC1=O)=CC(C)(C)O2`, 106 to 108 °C.
As to `CS(=O)(=O)c1cc(C(F)(F)F)ccc1C(=O)O`, the melting point was 156 °C.
On to `Cn1ccnc1Sc1c(N)cccc1Cl`, for which the melting point lay within 123 to 124 °C.
With `CCCCCCCCc1ccc(C(O)CCCCCC(=O)OC)cc1` (configuration not stated) the figure was 49 to 50 °C; with `CCCCc1nc(Cl)c(C=O)n1Cc1cccc2c1ncn2-c1ccccc1C#N`, 117 to 135 °C; with `CNC(=O)c1cccc2c1C1(COc3cc4c(cc31)OCCO4)C(=O)N2C` (configuration not stated), 120 to 122 °C.
For `NS(=O)(=O)c1ccc(-c2c(F)c(F)c(F)c(F)c2-c2ccc(F)cc2)cc1`, the melting point lay within 202 to 203 °C.
`O=C(NN=C1c2ccc(F)cc2CC1(O)c1ccc(F)cc1)Nc1ccc(Br)cc1` (configuration not stated) gave a melting point of 235 to 237 °C.
`O=Cc1ccc(-c2ccc(-c3ccc(C=O)o3)cc2)cc1` came in with a melting point of 173 to 174 °C.
`COc1cc2ccc(CC(=O)O)cc2cc1OC` showed a melting point of 115 to 117 °C.
The molecule `O=Cc1cccn2ccnc12` gave a melting point of 137 to 139 °C.
`O=C1NCC(CN2CCN(c3cccc(C(F)(F)F)c3)CC2)O1` (configuration not stated) yielded a melting point of 122 to 124 °C.
With `CC(Oc1cccc(Oc2c(Cl)cc(C(F)(F)F)cc2Cl)c1)(C(=O)O)[N+](=O)[O-]` (configuration not stated) the figure was 146 °C; with `O=C(NCCOc1ccc(CC(OCc2ccccc2)C(=O)O)cc1)c1ccc(-c2ccccn2)cc1` (configuration not stated), 138 to 139 °C; with `NC(=O)C1CCN(CCO)CC1`, 141 to 142 °C.
Turning to `CC(C)S(=O)(=O)c1cc(OCCc2ccccn2)c2[nH]nc(Nc3ncc(CN4CCOCC4)s3)c2c1`, the melting point is > 190 °C.
Molecule `CCOC(=O)c1ccc(NC2(C(N)=O)CCCCC2)cc1` came in with a melting point of 155 to 157 °C.
In turn, `CC(C)(C)OC(=O)Nc1scc(C2CC2)c1C(=O)O` came in with a melting point of 175 to 176 °C.
In the case of `CCOC(=O)c1c([N+](=O)[O-])c(-c2cccc([N+](=O)[O-])c2)[nH]c(=O)c1C(=O)OCC` it was 188 to 190 °C; in that of `Cc1nn(-c2ccccn2)c2nccc(O)c12`, 241 to 243 °C; in that of `N#Cc1ccc(CC2CC3CCC(C2)N3c2ccccc2)c2ccccc12` (configuration not stated), 103 to 104 °C.
As for `COc1ccc(CN2C(=O)c3c(-c4ccccc4Cl)cc4[nH]c5ccc(OC)cc5c4c3C2=O)c(OC)c1`, the melting point lay within 224 to 226 °C.
In the case of `CCn1c(=O)ccc2cnc(Nc3ccc(O)cc3)nc21` it was 222 to 224 °C.
On to `CNC(=O)c1cc(C(=O)c2ccccc2)ccc1[N+](=O)[O-]`, for which the melting point turned out to be 138 °C.
With `CC(C)n1nc(-c2cc(C(N)=O)cnc2-c2ccccc2)ccc1=O` the figure was 229 to 230 °C; with `Cc1nc2c(s1)CN=C(c1ccccc1)c1cc(Cl)ccc1-2`, 128 to 130 °C.
Molecule `Cc1cc(OC/C=C(/c2ccc(Cl)cc2)c2ccc(C#CCN3CCC(CO)CC3)cc2)ccc1OCC(=O)O` returned a melting point of 94 to 104 °C.
Take `CCc1[nH]c2cccc3c2c1CC1C3CC(NC(=O)N(CC)CC)CN1C` (configuration not stated): the melting point fell in the range of 165 to 168 °C.
In turn, `Cc1cc(-c2ccc(O)cc2)ccc1C=O` displayed a melting point of 161 to 162 °C.
`CN(C)c1nn2nnnc2c2c1CCCC2` came in with a melting point of 239 to 240 °C.
In turn, `CC(C)(C)OC(=O)N1CCn2c(Cl)c(Br)c(C(N)=O)c2C1` displayed a melting point of 214 to 216 °C.
Turning to `CCN(CC)c1ccc(C=NNC(=O)c2ccc(O)cc2)cc1`, the melting point was found to be 228 °C.
`CCOC(=O)C(Cc1nc2cc(Cl)c(Cl)cc2nc1CP(=O)(OC)OC)(NC(C)=O)C(=O)OCC`: the melting point lay in the range of 130 to 132 °C.
Molecule `COc1ccc(-c2ccc(C=O)c3occc23)cc1` yielded a melting point of 104 to 105 °C.
Take `CCOC(=O)CC(NC(=O)c1ccccc1)C(=O)C(C)C` (configuration not stated): the melting point fell in the range of 44 to 46 °C.
As to `Nc1cccc(-c2ccc(CCN3CCN(C(=O)Cc4ccc(F)cc4)CC3)cc2)n1`, the melting point was in the range of 143 to 145 °C.
`CCCCN(CCCC)c1ccc2c(c1)O/C(=C1/Oc3cc(N(CCCC)CCCC)ccc3C1=O)C2=O` had a melting point of 216 °C.
In turn, `CN(C)Cc1ccccc1Sc1ccc(F)cc1[N+](=O)[O-]` yielded a melting point of 57 to 59 °C.
`CCCCN(Cc1ccc(-c2ccccc2-c2nnnn2C(c2ccccc2)(c2ccccc2)c2ccccc2)cc1)c1nc(C)ccc1C(=O)OCC` came in with a melting point of 120 to 122 °C.
In turn, `Cn1c(C(F)(F)F)cc(=O)n(-c2c(F)cc(Cl)c3cc(CS(C)(=O)=O)oc23)c1=O` yielded a melting point of 209 to 211 °C.
`CN1C(=O)c2c(c3ccc(Cl)cc3n2CCN2CCCCC2)Oc2ccccc21` yielded a melting point of 160 to 162 °C.
Regarding `CN1CCN(C(=O)c2ccc(-c3cnc4c(c3)N(C(=O)c3cc(F)ccc3F)CCN4)cc2)CC1`, the melting point lay in the range of 201 to 203 °C.
Turning to `N#CCCCNC(=O)c1nn(C2CCCCO2)cc1NC(=O)c1ccccn1` (configuration not stated), the melting point was in the range of 155 to 157 °C.
With `CN(C)CCCc1ccc(S(=O)(=O)N2CCC(Nc3nc(N)c(C(=O)c4c(F)cccc4F)s3)CC2)cc1` the figure was 117 to 120 °C.
For the molecule `O=C(Nc1cccc(F)c1)c1ccccn1`, the melting point lay within 74 to 78 °C.
As for `O=C(c1ccco1)N1CCN(c2nc3c(c(-c4ccc(F)cc4)n2)CCC3)CC1`, the melting point was 124 to 125 °C.
`COc1cc(Br)c(S(C)(=O)=O)cc1C(=O)O` gave a melting point of 225 to 258 °C.
On to `CCOc1nn(Cc2ccc(Cl)cc2Cl)cc1CCCOc1cc(CCC(=O)O)n(Cc2ccccc2)n1`, for which the melting point was 84 to 85 °C.
With `COc1cc(N2C(=O)C3(CC3)[C@@H](O)[C@@H]2C)ccc1C#N` the figure was 167 to 169 °C; with `Fc1cc(C(c2cccc(Cl)c2)n2cncn2)c2ccccc2n1` (configuration not stated), 140 °C.
With `CCCN(C1CC(C)(C)Oc2ccc(OCCOC)cc21)S(=O)(=O)CC` (configuration not stated) the figure was 78 to 80 °C; with `Clc1cnn2c(-c3cccnc3)ccnc12`, 225 to 226 °C.
As to `Nc1nc(CSCCN2CCN(C(c3ccccc3)c3ccccc3)CC2)cs1`, the melting point is 159 to 161 °C.
With `O=CN1CCN(c2nn(-c3ccccc3)c3ccccc23)CC1` the figure was 130 to 132 °C; with `COC(=O)c1cc(C(=O)NCCNC(C)=O)c2cc(Cc3ccc(F)cc3)cnc2c1O`, 251 to 253 °C; with `COC(=O)C(Cc1cc(OC)cc(OC)c1)c1ccc(O)cc1` (configuration not stated), 63 to 65 °C.
With `O=C1c2cccc3cc4ccccc4c(c23)C(=O)N1CCCNCCN1C(=O)c2cccc3cc4ccccc4c(c23)C1=O` the figure was 260 °C; with `N[C@@H](Cc1ccc(C(F)(F)F)cc1)[C@H](O)c1ccccc1` (racemic), 64 to 65 °C.
In turn, `CCN1CCCC1CNC(=O)c1ccc(O)c(Cl)c1` (configuration not stated) displayed a melting point of 228 °C.
Take `CCOC(=O)C1CCCN(C(=O)/C=C/c2ccc(Sc3ccc4c(c3)OCCO4)c([N+](=O)[O-])c2)C1` (configuration not stated): the melting point lay in the range of 73 to 75 °C.
In the case of `CC(C)c1cccc(C(C)C)c1N1C(=O)c2cccc3c(Br)ccc(c23)C1=O` it was 277 °C; in that of `Nc1cccc(-c2ccc(CCN3CCN(C(=O)c4ccccc4)CC3)cc2)n1`, 125 to 127 °C; in that of `Cc1ccc2c(c1NC(=O)CC1c3ccccc3Oc3ccccc31)OC(C)C2` (configuration not stated), 290 to 291 °C.
With `O=C(c1ccccc1)c1[nH]c2cc(Cl)ccc2c1NC(=O)N1CCOCC1` the figure was 168 to 170 °C.
With `CN=C(NOC)c1nn(-c2c(Cl)cc(C(F)(F)F)cc2Cl)c(N)c1S(C)=O` (configuration not stated) the figure was 139 to 142 °C; with `COC(=O)CCc1cnoc1-c1ccc(Cl)c(F)c1`, 53 to 54 °C.
The molecule `CCOC(=O)C1CCNC1=O` (configuration not stated) had a melting point of 74.5 to 75.5 °C.
`NS(=O)(=O)c1cc(C(=O)O)cc([N+](=O)[O-])c1Oc1ccc(Cl)cc1` showed a melting point of 248 °C.
Turning to `CCCCCCNC(=O)C1=C(C(=O)Nc2cc(OC3CCCC3)c(Cl)cc2F)CCCC1`, the melting point was in the range of 128 to 130 °C.
With `COc1cc(Br)c(O)c([N+](=O)[O-])c1` the figure was 116 to 118 °C.
With `CCOC(=O)C(C)Oc1ccc(N(C)c2nc3ccc(Br)cc3o2)cc1` (configuration not stated), the melting point was 91 to 92 °C.
Consider `O=C1c2c(cc(O)c(Cl)c2Cl)CC1C1CCCC1` (configuration not stated), for which the melting point lay in the range of 222 to 225 °C.
With `CNc1nc(-c2ccc(O)c(F)c2)cc2c(OC)cccc12` the figure was 185 to 187 °C; with `O=C(C=Cc1ccc(-c2ccc(O)c(Cl)c2)cc1)NO`, 172 to 175 °C.
In turn, `Cn1nc(Sc2ccc(C(=O)O)c(Cl)c2)n(C)c1=O` displayed a melting point of 222 °C.
For `CC(=O)N1CCc2[nH]cc3c(=O)n(-c4ccc(Cl)cc4)nc-3c2C1`, the melting point was > 350 °C.

For the origin of these results see a melting point compilation (Tetko et al.; mined from patent text by program, amines drawn as free bases though some values may be those of a salt).
